Laboratory results taken from US6310086A, “Indole derivatives and medicinal compositions containing the same” (Kissei Pharmaceutical Co., Ltd., priority 1998, dated 2001).
Structures can show the parent of a compound that is named as a salt. Where two headings read alike, the source gives them in different places.

What was measured:
[1] = biological target: T1, α1-adrenoceptor (Rattus norvegicus, UniProt P43140); assay: Test for Measuring α1-adrenoceptor Blocking Effect (inhibition of norepinephrine contraction of isolated ductus deferens); type: cell-based, rat (male Wistar); details: 10 μM norepinephrine, propranorol 1 μM and yohimbine 0.1 μM
T1 construct: Ductus deferenses (about 1.5 cm from testis side) were isolated; from tissue; host or cells: isolated ductus deferens (about 1.5 cm from testis side) of male Wistar rats, organ bath
T1 sequence (P43140 1-466): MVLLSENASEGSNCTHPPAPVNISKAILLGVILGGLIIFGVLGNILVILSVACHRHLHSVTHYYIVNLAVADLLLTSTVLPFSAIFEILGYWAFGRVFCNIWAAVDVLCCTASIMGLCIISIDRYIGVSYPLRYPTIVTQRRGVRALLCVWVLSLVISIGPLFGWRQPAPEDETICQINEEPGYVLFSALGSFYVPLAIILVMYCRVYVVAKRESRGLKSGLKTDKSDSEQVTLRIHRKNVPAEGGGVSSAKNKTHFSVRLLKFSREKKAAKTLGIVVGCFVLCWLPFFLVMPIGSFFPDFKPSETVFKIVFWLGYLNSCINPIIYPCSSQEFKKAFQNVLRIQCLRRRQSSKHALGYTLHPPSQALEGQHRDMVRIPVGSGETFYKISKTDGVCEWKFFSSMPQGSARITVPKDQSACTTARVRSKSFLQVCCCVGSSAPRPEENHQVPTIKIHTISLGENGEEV
Method: Ductus deferenses (about 1.5 cm from testis side) were isolated frommaleWistar rats (about 300 to 350 g in body weight). […] A solution of a mixture containing propranorol and yohimbine (final concentration: propranorol 1 μM and yohimbine 0.1 μM) was added into the Magnus bath. After 30 minutes, norepinephrine at the final concentration of 10 μM was added into the Magnus bath until the maximum contraction was obtained, and each preparation was washed. This procedure was repeated several times until the heights of contraction were stable. Each preparation was pre-treated with a solution containing the test compound before 30 minutes, and the contractile responses by treatment of 10 μM norepinephrine were measured. Contraction of each preparation without pre-treatment of the test compound was expressed as 100%.

[2] = tested on: male SD rats; assay: Acute Toxicity Test (oral); type: in vivo, rat (SD); details: 1000 mg/kg
Method: Male SD rats of 7 weeks age (n=5; 190-210 g in body weight) were fasted for 18 hours. (R)-3-[7-Carbamoyl-5-[2-[[2-(2-ethoxyphenoxy)ethyl]amino]propyl]-1H-indol- 1-yl]propyl pivalate hydrochloride which was suspended in 0.5% aqueous methylcellulose solution at a concentration of 100 mg/ml was orally administered to the rats at a dose of 1000 mg/kg.

[3] = Test for Measuring Drug Concentration in Aqueous Humor (2), after instillation of Compound C hydrochloride; type: in vivo, rabbit (Japanese White); details: rabbit eye
Method: To the collected aqueous humor (0.1 ml) was added internal standard [(R)-3-chloro-1-(3-hydroxypropyl)-5-[2-[[2-[2-(2,2,2-trifluoroethoxy)phenoxy]ethyl]amino]propyl]-1H-indole-7-carboxamide](10 ng), and 0.1M phosphate buffer (pH7.6) and sodium chloride (about 1 g) were added to the mixture. The resulting mixture was extracted with diethyl ether (5 ml), and the diethyl ether layer was concentrated under a stream of nitrogen.
Mobile phase: acetonitrile/0.1% phosphoric acid+2 mM sodium laurylsulfate=1/1
Fluorometry: excitation wave length 270 nm, emission wave length 435 nm

[4] = Test for Rate of Hydrolysis by Endogenous Enzyme in whole blood; type: in vitro ADME, rat (male Wistar); details: for metabolised at 0.25 h: read-out: Decomposition rate, 15 minutes after; for metabolised at 1 h: read-out: Decomposition rate, 1 hour after; for metabolised at 2 h: read-out: Decomposition rate, 2 hours after
Method: (§1) (1 μg), and the mixture was incubated at 37° C. After 15 minutes, 30 minutes, 1 hour and 2 hours, 0.7M aqueous sodium fluoride solution (0.5 ml) as an esterase inhibitor was added to each sample to stop the reaction.
(§2) Analytical column: Inertsil ODS-3 (4.6×250 mm)
(§3) Mobile phase: acetonitrile/20 mM acetate buffer (pH 5.0)=40/60 Column temperature: 50° C.
(§4) Fluorometry: excitation wavelength 270 nm, emission wavelength 435 nm

[5] = tested on: Endogenous Enzyme; assay: as above; type: in vitro ADME, rat (male Wistar); details: blood, 2 hours
Method: as §1, §2, §3, §4

[6] = Stability Test in aqueous solution; type: physicochemical; details: pH 5, decomposed into Compound A
Method: The test compounds were dissolved in 0. 1M acetate buffer (pH 5.0) to prepare 0.1% solutions. Each 0.1% solution was allowed to stand in the dark for 28 days at 40° C., 50° C., 60° C. and 70° C., respectively.

[7] = rat whole blood, 37° C., 1 μg in 0.5 ml
[8] = rat whole blood, 37° C., 1 μg in 0.5 ml, read-out: Decomposition rate, 30 minutes after

SMILES	metabolised at 0.5 h ([4]; blood, 30 minutes)	metabolised at 0.25 h [4, 7]	metabolised at 0.5 h [4, 8]	metabolised at 1 h [4, 7]	metabolised at 2 h [4, 7]	further results
CCCC(=O)N1CCCN(c2nc(N)c3cc(OC)c(OC)cc3n2)CC1 [Bunazosin hydrochloride]						IC50 [1]: 315 nM
CCOc1ccccc1OCCN[C@H](C)Cc1cc(C(N)=O)c2c(ccn2CCCOC(=O)C(C)(C)C)c1.Cl [Compound C hydrochloride, (R)-3-[7-Carbamoyl-5-[2-[[2-(2-ethoxyphenoxy)ethyl]amino]-propyl]-1H-indol-1-yl]propyl Pivalate Hydrochloride]						fatal rats during 24 hours after administration [2]: Any fatal rats were not observed
CCOc1ccccc1OCCN[C@H](C)Cc1cc(C(N)=O)c2c(ccn2CCCOC(=O)C(C)(C)C)c1 [Compound C, (R)-3-[7-Carbamoyl-5-[2-[[2-(2-ethoxyphenoxy)ethyl]amino]-propyl]-1H-indol-1-yl]propyl Pivalate]						detection of the ester in aqueous humor ([3]; even after 20 minutes): could not be detected in aqueous humor at all even after 20 minutes
CCOc1ccccc1OCCN[C@H](C)Cc1cc(C(N)=O)c2c(ccn2CCCOC(=O)C(C)(C)C)c1 [Compound C]						concentration at 20 min ([3]; aqueous humor, topical or ocular, 50 ug/eye, 50 μl of 0.1% Compound C hydrochloride instilled, Compounds B and C determined, read-out: Drug concentrations in aqueous humor, 20 minutes after): < 1 ng/mL; concentration at 2 h ([3]; aqueous humor, topical or ocular, 50 ug/eye, 50 μl of 0.1% Compound C hydrochloride instilled, Compounds B and C determined, read-out: Drug concentrations in aqueous humor, 2 hours after): < 1 ng/mL; concentration at 6 h ([3]; aqueous humor, topical or ocular, 50 ug/eye, 50 μl of 0.1% Compound C hydrochloride instilled, Compounds B and C determined, read-out: Drug concentrations in aqueous humor, 6 hours after): < 1 ng/mL
CCC(CC)C(=O)OCCCn1ccc2cc(C[C@@H](C)NCCOc3ccccc3OCC(F)(F)F)cc(C(N)=O)c21 [Compound a, (R)-3-[7-Carbamoyl-5-[2-[[2-[2-(2,2,2-trifluoroethoxy)-phenoxy]ethyl]amino]propyl]-1H-indol-1-yl]propyl 2-ethyl-butyrate]	~12%					
CCC(CC)C(=O)OCCCn1ccc2cc(C[C@@H](C)NCCOc3ccccc3OCC(F)(F)F)cc(C(N)=O)c21 [Compound a]		8.4%	12%	12.6%	25.2%	
CCCC(C)(C)C(=O)OCCCn1ccc2cc(C[C@@H](C)NCCOc3ccccc3OCC(F)(F)F)cc(C(N)=O)c21 [Compound b]		2.2%	3.8%	7.5%	10.2%	
C[C@H](Cc1cc(C(N)=O)c2c(ccn2CCCOC(=O)C(C)(C)c2ccccc2)c1)NCCOc1ccccc1OCC(F)(F)F [Compound c, (R)-3-[7-Carbamoyl-5-[2-[[2-[2-(2,2,2-trifluoroethoxy)-phenoxy]ethyl]amino]propyl]1H-indol-1-yl]propyl α,α-dimethylphenylacetate]	~2%					
CCC(C)(C)C(=O)OCCCn1ccc2cc(C[C@@H](C)NCCOc3ccccc3OCC(F)(F)F)cc(C(N)=O)c21 [Compound d]		2.1%	5.6%	8.4%	21.7%	

Second part, led by results:

metabolised at 0.5 h ([4]; blood, 30 minutes)	metabolised at 0.25 h [4, 7]	metabolised at 0.5 h [4, 8]	metabolised at 1 h [4, 7]	metabolised at 2 h [4, 7]	SMILES	further results
~67%					C[C@H](Cc1cc(C(N)=O)c2c(ccn2CCCOC(=O)C(C)(C)C)c1)NCCOc1ccccc1OCC(F)(F)F [Compound D, (R)-3-[7-Carbamoyl-5-[2-[[2-[2-(2,2,2-trifluoroethoxy)-phenoxy]ethyl]amino]propyl]-1H-indol-1-yl]propyl Pivalate]	conversion into Compound A after 2 hours [5]: almost Compound A after 2 hours; degraded ([6]; 40° C., about 1 month at 40° C.): ~0.1%; degraded ([6]; 70° C., about 1 month at 70° C.): ~1.1%
	54.8%	67.1%	86.5%	98.6%	C[C@H](Cc1cc(C(N)=O)c2c(ccn2CCCOC(=O)C(C)(C)C)c1)NCCOc1ccccc1OCC(F)(F)F [Compound D]	
~4%					CCCC(C)(C)C(=O)OCCCn1ccc2cc(C[C@@H](C)NCCOc3ccccc3OCC(F)(F)F)cc(C(N)=O)c21 [Compound b, (R)-3-[7-Carbamoyl-5-[2-[[2-[2-(2,2,2-trifluoroethoxy)-phenoxy]ethyl]amino]propyl]-1H-indol-1-yl]propyl 2,2-dimethylvalerate]	
	0.6%	1.6%	3.2%	3.7%	C[C@H](Cc1cc(C(N)=O)c2c(ccn2CCCOC(=O)C(C)(C)c2ccccc2)c1)NCCOc1ccccc1OCC(F)(F)F [Compound c]	
~6%					CCC(C)(C)C(=O)OCCCn1ccc2cc(C[C@@H](C)NCCOc3ccccc3OCC(F)(F)F)cc(C(N)=O)c21 [Compound d, (R)-3-[7-Carbamoyl-5-[2-[[2-[2-(2,2,2-trifluoroethoxy)-phenoxy]ethyl]amino]propyl]-1H-indol-1-yl]propyl 2,2-Dimethylbutyrate]	
